In patent US20080139664A1, “ANTI-GLYCATION AGENTS FOR PREVENTING AGE-, DIABETES-, AND SMOKING-RELATED COMPLICATIONS” (NATIONAL RESEARCH COUNCIL OF CANADA, priority 2001, published 2008):
Where two headings read alike, the source gives them in different places.

Columns and labels:
[1] = test system: bovine serum albumin (BSA); assay: SDS-PAGE assessment of BSA-BSA protein cross-links; type: biochemical; conditions: mixtures further incubated for 4 weeks; further: key: ++: strongly suppressed; +: suppressed; −: no suppression; *: moderate acceleration of the cross-linking
Description: Additionally, protein cross-links were semi-quantitatively assessed by SDS PAGE gel chromatography.
Protein-protein cross-links were characterized by SDS-PAGE. The incubation mixtures used for determination of the amino groups were further incubated for 4 weeks. An aliquot of the solution was applied to Pharmacia SDS FAST gel and the proteins were stained with Coomassie blue.

[2] = test system: bovine serum albumin (BSA)
[3] = test system: bovine serum albumin (BSA); assay: Fluorescamine assay of free primary amino groups of BSA incubated with D-ribose; type: biochemical; conditions: for Unreacted amino group: free primary amino group on BSA after 5 days at 37° C., agent at 16.8 times IC50, 64% without agent
lysozyme = assay: ESI-MS of lysozyme glycoforms after incubation with D-ribose;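 further: lysozyme incubated with D-ribose, with or without anti-glycation agents, then separated by reversed-phase HPLC and analysed by electrospray mass spectrometry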
[4] = test system: bovine serum albumin (BSA); assay: Maillard fluorescence-based assay of AGEs formation, IC50 determination (BSA + D-ribose); conditions: inhibition of Maillard fluorescence development; 0.075 mM BSA, 50 mM D-ribose, 37° C., 5 days
[5] = lysozyme + 2D-ribose − 2H2O (14,569 Da), 37° C., 5 days
[6] = lysozyme + 2D-ribose − 3H2O (14,551 Da), 37° C., 5 days
[7] = lysozyme + 2D-ribose − 5H2O (14,533 Da), 37° C., 5 days
[8] = lysozyme + 2D-ribose − 6H2O (14,515 Da), 37° C., 5 days
[9] = lysozyme + D-ribose − 2H2O (14,419 Da), 37° C., 5 days
[10] = lysozyme + D-ribose − 3H2O (14,401 Da), 37° C., 5 days
[11] = lysozyme + D-ribose − H2O (14,437 Da), 37° C., 5 days
[12] = lysozyme + D-ribose − H2O with one carboxymethylated Lys residue (14,496 Da), 37° C., 5 days
[13] = lysozyme with one carboxymethylated Lys residue (14,364 Da), 37° C., 5 days
[14] = unmodified lysozyme (14,305 Da), 37° C., 5 days
[15] = FIG. 2, in words, 37° C., 5 days

Structure (SMILES)	IC50 [2]	Suppression of BSA-BSA cross-links [1]	Unreacted amino group [3]	Peak area as % of total area of all glycoforms, 14,569 (lysozyme; [5])	Peak area as % of total area of all glycoforms, 14,551 (lysozyme; [6])	Peak area as % of total area of all glycoforms, 14,533 (lysozyme; [7])	Peak area as % of total area of all glycoforms, 14,515 (lysozyme; [8])	Peak area as % of total area of all glycoforms, 14,419 (lysozyme; [9])	Peak area as % of total area of all glycoforms, 14,401 (lysozyme; [10])	Peak area as % of total area of all glycoforms, 14,437 (lysozyme; [11])	Peak area as % of total area of all glycoforms, 14,496 (lysozyme; [12])	Peak area as % of total area of all glycoforms, 14,364 (lysozyme; [13])	Peak area as % of total area of all glycoforms, 14,305 (lysozyme; [14])	also measured
Oc1cccc2cccnc12 [8-Hydroxyquinoline]	95 µM	+	55%	–	–	–	–	–	–	–	–	–	–	Peak area as % of total area of all glycoforms, 14,305 (lysozyme): 67.8%; Peak area as % of total area of all glycoforms, 14,364 (lysozyme): 4.2%; Peak area as % of total area of all glycoforms, 14,401 (lysozyme): 5.8%; Peak area as % of total area of all glycoforms, 14,419 (lysozyme): 3.6%; Peak area as % of total area of all glycoforms, 14,437 (lysozyme): 9.0%; Peak area as % of total area of all glycoforms, 14,496 (lysozyme): 1.7%; Peak area as % of total area of all glycoforms, 14,515 (lysozyme): 1.7%; Peak area as % of total area of all glycoforms, 14,533 (lysozyme): 1.6%; Peak area as % of total area of all glycoforms, 14,551 (lysozyme): 1.5%; Peak area as % of total area of all glycoforms, 14,569 (lysozyme): 2.3%
Cc1cc(-c2ccc(/N=N/c3c(S(=O)(=O)O)cc4cc(S(=O)(=O)O)cc(N)c4c3O)c(C)c2)ccc1/N=N/c1c(S(=O)(=O)O)cc2cc(S(=O)(=O)O)cc(N)c2c1O [Trypan blue]	–	+	60%	4.6%	3.4%	1.9%	1.6%	5.6%	3.0%	20.2%	2.1%	3.7%	49.8%	IC50 [4]: 240 µM
CC(C)NC[C@H](O)c1ccc(O)c(O)c1 [L-Isoproterenol]	–	+	73%	2.2%	0.8%	1.0%	0.9%	2.3%	2.5%	16.5%	1.4%	5.3%	67.0%	effect on protection of amino groups of BSA ([3]; in words): protect the amino group against glycation
O=S(=O)(O)c1ccc(O)c2ncccc12 [8-Hydroxyquinoline-5-sulfonic acid]	560 µM	++	76%	5.2%	0.9%	1.0%	0.5%	3.2%	2.0%	27.9%	0.0%	0.7%	58.0%	–
NC[C@@H](O)c1ccc(O)c(O)c1 [L-Norepinephrine]	–	+	70%	1.2%	0.0%	0.0%	0.0%	2.4%	2.3%	12.0%	0.9%	5.3%	75.9%	–
O=C1c2c(O)ccc(O)c2C(=O)c2c(NCCNCCO)ccc(NCCNCCO)c21 [Mitoxantrone]	630 µM	+	50%	5.9%	3.6%	1.3%	0.8%	6.5%	1.9%	25.2%	1.0%	1.6%	49.8%	–
CC(C)NC[C@@H](O)c1ccc(O)c(O)c1 [D-Isoproterenol]	–	+	68%	1.4%	0.2%	0.5%	0.0%	1.8%	0.8%	13.7%	0.6%	4.7%	76.2%	–
CCC(NC(C)C)C(O)c1ccc(O)c(O)c1 (centres unmarked) [Isoetharine]	–	+	70%	1.6%	0.7%	0.9%	0.9%	1.6%	1.3%	14.3%	1.4%	3.9%	73.4%	IC50 [4]: 25 µM
N=C(N)NN [Aminoguanidine]	–	+	68%	5.7%	1.2%	1.1%	0.7%	2.6%	2.1%	26.2%	1.4%	3.2%	54.5%	IC50 [4]: 345 µM; amount of (AP-H2O) glycoform of lysozyme (lysozyme; [15]): reduced

Second part, led by results:

IC50 [2]	Structure (SMILES)	Suppression of BSA-BSA cross-links [1]	Unreacted amino group [3]	Peak area as % of total area of all glycoforms, 14,569 (lysozyme; [5])	Peak area as % of total area of all glycoforms, 14,551 (lysozyme; [6])	Peak area as % of total area of all glycoforms, 14,533 (lysozyme; [7])	Peak area as % of total area of all glycoforms, 14,515 (lysozyme; [8])	Peak area as % of total area of all glycoforms, 14,419 (lysozyme; [9])	Peak area as % of total area of all glycoforms, 14,401 (lysozyme; [10])	Peak area as % of total area of all glycoforms, 14,437 (lysozyme; [11])	Peak area as % of total area of all glycoforms, 14,496 (lysozyme; [12])	Peak area as % of total area of all glycoforms, 14,364 (lysozyme; [13])	Peak area as % of total area of all glycoforms, 14,305 (lysozyme; [14])	also measured
600 µM	CN1CCCN=C1/C=C/c1cccc(O)c1 [Oxantel]	+	55%	3.1%	2.0%	1.7%	1.1%	5.6%	3.7%	17.4%	1.7%	5.4%	57.7%	–
18 µM	CNC[C@H](O)c1ccc(O)c(O)c1 [L-Epinephrine]	++	69%	1.7%	0.0%	0.0%	0.0%	2.0%	0.8%	15.3%	1.0%	4.8%	74.5%	amount of (AP-H2O) glycoform of lysozyme (lysozyme; [15]): reduced; amount of AP glycoform of lysozyme (lysozyme; [15]): reduced
19 µM	CN(C)[C@@H]1C(O)=C(C(N)=O)C(=O)[C@@]2(O)C(O)=C3C(=O)c4c(O)ccc(Cl)c4[C@@H](O)[C@H]3C[C@@H]12 [Demeclocycline]	+	69%	1.4%	0.0%	0.0%	0.0%	3.0%	1.9%	13.7%	0.0%	4.2%	75.2%	–
66 µM	NC[C@H](O)c1ccc(O)c(O)c1 [D-Norepinephrine]	+	67%	1.0%	0.0%	0.0%	0.0%	1.9%	1.9%	12.1%	0.7%	5.0%	77.3%	–
